Laboratory results taken from patent publication US8309068B2, “Isolated polypeptides and methods of improving muscle strength” (Myostin Therapeutics Pty Ltd., priority 2006, dated 2012).
“Also recorded” adds a separate entry of the source. Where no end group is shown, it is not given here.

B1: myostatin antagonist 329: recombinant peptide, amino acids 267-329 of bovine myostatin, with N terminal and C terminal tag (SEQ ID NO: 3) (protein, listed as Homo sapiens)
chain: DFGLDCDEHSTESRCCRYPLTVDFEAFGWDWIIAPKRYKANYCSGECEFVFLQKYPHTHLVHQ
modifications: N- and C-terminal tags

Tests used:
[1] = system: C57B mice injected with Dexamethasone; experiment: In vivo cachexia trial (Dexamethasone-induced)
Procedure: A study of chronic cachexia was designed whereby C57B mice, 4 weeks of age, were injected with the glucocorticoid drug Dexamethasone daily at a concentration of 1 mg/kg body weight. Three treatment groups were designed: 5 mice receiving daily injections of saline, 5 mice receiving daily injections of Dexamethasone and 5 mice receiving daily injections of Dexamethasone plus 300 antagonist at a concentration of 6μg/g body weight. Body weight of the mice was recorded daily and monitored closely for signs of cachexia. Food and water consumption was recorded to ensure that loss in body weight was not due to a loss of appetite or thirst. Body weights, fat-pad weights, and MyoD and Pax7 expression were assessed.

C2C12 myoblasts = experiment: C2C12 myoblast proliferation assay (methylene blue endpoint); format: cell-based, murine; settings: for proliferation capacity of myoblasts compared to control: 1 μg/ml or 5 μg/ml over 48 or 72 hours; for concentration at which the highest myoblast proliferation rate was observed: 48 hour time point
Procedure: A polypeptide of the invention, or a fragment, variant or derivative thereof has the biological function of antagonising myostatin activity. To determine whether a polypeptide of the invention, or a fragment, variant or derivative thereof, is able to antagonise myostatin activity, such activity can be tested by growing myoblasts in the presence or absence (control) of a candidate polypeptide of the invention. […]
(§1) The myoblast proliferation assay was carried out in uncoated 96-well microtitre plates. C2C12 cultures were seeded at 1000 cells/well. Following a 16-hour attachment period, test media containing either recombinant wild type myostatin or different myostatin antagonists were added and cells were incubated for a further 48 or 72 hour period. For competition assay, wild type myostatin was competed with different concentrations of myostatin antagonists prior to the addition into the media. After the incubation period, proliferation was assessed using methylene blue photometric endpoint assay as previously described (Thomas et al, 2000).

myostatin [2] = experiment: C2C12 myoblast proliferation competition assay: wild type myostatin competed with antagonists; format: cell-based; settings: antagonist 1, 5 and 10 μg/ml; myostatin 2.25 μg/ml
Procedure: as §1, with “[…] C2C12 myoblasts were grown in Dulbecco's modified eagle medium according to the standard techniques (Thomas et al, 2000). The” for “The”

myostatin [3] = experiment: Myoblast chemotaxis assay, recovery of myostatin chemo-inhibition by antagonists; format: cell-based
Procedure: Primary myoblasts were cultured from the hind limb muscle of young (4 to 6 week old) or old (24 month old) mice, according to the published protocols (Allen et al., 1997; Partridge, 1997). Briefly, muscles were minced, and digested in 0.2% collagenase type 1A for 90 min. Cultures were enriched for myoblasts by pre-plating on uncoated plates for 3 hours. Myoblast cultures were maintained in growth media (GM) supplemented with 20% fetal calf serum (FCS), 10% HS and 1% CEE on 10% Matrigel coated plates, at 37° C./5% CO2. The extent of culture purity was assessed by flow cytometry analysis of MyoD expression after 48 hours in culture. Cells were harvested using trypsin, suspended at a concentration of 10^6 cells/200 μl and fixed overnight in 5 ml 70% ethanol at −20° C. Staining was performed for 30 min at room temperature using rabbit polyclonal anti-MyoD, 1:200 (Santa Cruz), followed by Alexa fluor 488 anti-rabbit conjugate, 1:500 (Molecular Probes). Analysis was carried out in duplicate with 10^4 cell events collected in each assay. Debris was excluded by gating on forward and side scatter profiles. Cells were analyzed by FACScan (Becton Dickinson). Macrophages were isolated by a peritoneal lavage technique and/or derived from bone marrow Zymosan-activated mouse serum (ZAMS) was prepared according to the published protocol (Colditz and Movat, 1984).
For the chemotaxis assay of myoblasts, a first assay was carried out on myoblasts from 2 year old mice as follows. DMEM containing 2% horse serum (HS), 5% chicken embryo extract (CEE) plus dialysis buffer was used as positive control. […] Plain DMEM was used as negative control. On a 24-well plate, the bottom wells were filled with test or control media. Seventy-five thousand cells were added to the top wells containing polyethylene terephthalate (PET) 0.8 μm membranes coated with 1% Matrigel. The plate was incubated for 7 h at 37° C., 5% CO2. […] The membrane was then fixed, stained in Gill's hematoxylin and wet mounted on slides. Migrated cells were counted on four representative fields per membrane and the average number plotted. The results are shown in FIG. 6 (myoblast migration from old mice) and FIG. 7 (myoblast migration from young mice).

[4] = system: Human skeletal muscle myoblasts; experiment: Human myoblast proliferation assay; format: cell-based; settings: 1, 5 or 10 μg/ml; 144 hours
Procedure: (§2) Human skeletal muscle myoblasts (Cambrex, USA) or primary ovine myoblasts were grown in Dulbecco's Modified Eagle Medium containing 20% FBS, 10% Horse serum and 0.5% chicken embryo extract according to the standard techniques. The myoblast proliferation assay was carried out in uncoated 96-well microtitre plates. Cell cultures were seeded at 2000 cells/well. Following a 24-hour attachment period, test media supplemented with 5% FCS containing either buffer as a control or different myostatin antagonists (300, 310 or 320) were added at 1, 5 and 10 μg/ml and cells were incubated for a further 144 hour period (for human cells) or 48 hours (for ovine cells). After the incubation period, proliferation was assessed using methylene blue photometric endpoint assay as previously described (Thomas et al, 2000).

satellite cells = experiment: Single muscle fibre satellite cell activation assay (PCNA labeling); format: cell-based, mice; settings: single fibres from old (2 year old) mice; 5 μg/ml; 24 or 48 hours
Procedure: Single fibres were isolated as previously described Rosenblatt et al., (1995). Briefly, 1 and 24 month old wild-type mice were euthanized by CO2 gas followed by cervical dislocation. TA were dissected out and digested in 0.2% (w/v) type 1A collagenase (>260 CDU/mg, Sigma) in Dulbecco's modified Eagle medium (DMEM) (Invitrogen) for 60 minutes at 37° C. Muscles were transferred to DMEM +10% horse serum (HS) +0.5% chicken embryo extract (CEE) and fibres were separated by gentle trituration. Isolated fibres were transferred to 4 well chamber slides (Becton Dickinson) coated with 10% matrigel (Becton Dickinson) and fixed with 100% ice cold methanol for 10 minutes after culturing up to 72 hours at 37° C. in 5% CO2.
Proliferating Cell Nuclear Antigen (PCNA) is expressed in cells that are actively undergoing cell cycle but not in quiescent cells. […] However, upon activation, satellite cells are activated to express PCNA and regenerate the muscle by replenishing the muscle fibres. Thus PCNA is a very reliable antigen to marker for the activated satellite cells.
In order to determine the effect of myostatin antagonists on satellite cell activation, single muscle fibres from TA muscle of young (1 month) or old (24 month) wild type mice were cultured in presence of 5 μg/ml of myostatin antagonist 320, 310 or 300, in culture media for 24, 48 and 72 hours and fixed with methanol and washed in PBS. The fixed fibres were permeabilised in 0.5% TritonX-100 in PBS for 10 minutes, blocked in 10% normal goat serum and 0.35% carrageenan lambda in PBS for 30 minutes at room temperature then incubated with a 1:100 dilution of anti-PCNA antibody in blocker overnight. Primary antibody was detected using goat anti-mouse-alexa fluor 546 and fibres were counterstained with DAPI. PCNA positive activated satellite cells were counted under microscope and expressed as a percent of total myonuclei.

primary ovine myoblasts = experiment: Ovine myoblast proliferation assay; format: cell-based; settings: 1, 5 or 10 μg/ml; 48 hours
Procedure: as §2

[5] = Dexamethasone, right gastrocnemius, p<0.05
[6] = myoblasts from old (2 year old) mice, antagonist added at 5 μg/ml, myostatin 2.5 μg/ml

Row | Molecule | proliferation capacity of myoblasts compared to control (C2C12 myoblasts) | rescue of the proliferation-inhibiting effects of myostatin on myoblasts (myostatin [2]) | rescue of chemo-inhibiting effects of myostatin on myoblast migration (myostatin [3]; [6]) | proliferation capacity of human myoblasts compared to control [4] | percentage of activated satellite cells (satellite cells) | concentration at which the highest myoblast proliferation rate was observed (C2C12 myoblasts) [µg/mL] | proliferation capacity of ovine myoblasts compared to control (primary ovine myoblasts) | other results
1 | C[C@@H]1C[C@H]2[C@@H]3CCC4=CC(=O)C=C[C@]4(C)[C@@]3(F)[C@@H](O)C[C@]2(C)[C@@]1(O)C(=O)CO [Dexamethasone, reference compound] | – | – | – | – | – | – | – | average body weight compared with saline injected controls ([1]; Dexamethasone 1 mg/kg daily, 22 days): reduction in average body weight; increase in left retroperitoneal fat-pad weight compared to saline ([1]; Dexamethasone only): 62.9%; increase in right retroperitoneal fat-pad weight compared to saline ([1]; Dexamethasone only): 60.4%; left and right retroperitoneal and inguinal fat-pad weights compared to saline ([1]; Dexamethasone only, p<0.05): statistically significant increases; MyoD expression (Western blot) [1, 5]: significant down-regulation; Pax7 expression (Western blot) [1, 5]: significant down-regulation
2 | myostatin antagonist 280: recombinant peptide, amino acids 267-280 of bovine myostatin, with tags; contains only one cysteine residue; inactive comparison (DFGLDCDEHSTESR; also: with tags; UniProt O18836 267-280, looked up, fragment) | did not show activity above the control | – | – | – | – | – | – | biological (myostatin antagonist) activity of the peptide (C2C12 myoblasts; listed as 280): appears to be inactive; also recorded: not biologically active
3 | myostatin antagonist 310: recombinant peptide, amino acids 267-310 of bovine myostatin, with N terminal and C terminal tag (SEQ ID NO: 5) (DFGLDCDEHSTESRCCRYPLTVDFEAFGWDWIIAPKRYKANYCS; cysteine pairing not given here; also: N- and C-terminal tags; listed as Homo sapiens) | significantly enhanced | rescued to levels similar to those observed in the positive control | rescued to levels similar to those observed in the control | significantly enhanced | Significant increases | 5 | significantly enhanced | rescue of chemo-inhibiting effects of myostatin on myoblast migration (myostatin [3]; myoblasts from young (1 month old) mice): rescued the migration of myostatin cells to control levels
4 | myostatin antagonist 320: recombinant peptide, amino acids 267-320 of bovine myostatin, with N terminal and C terminal tag (SEQ ID NO: 4) (DFGLDCDEHSTESRCCRYPLTVDFEAFGWDWIIAPKRYKANYCSGECEFVFLQK; cysteine pairing not given here; also: N- and C-terminal tags; listed as Homo sapiens) | significantly enhanced | rescued to levels similar to those observed in the positive control | rescued to levels similar to those observed in the control | significantly enhanced | Significant increases | 5 | significantly enhanced | –
5 | B1 | significantly enhanced | – | – | – | – | 10 | – | –
